Reference: publication PMC10252683, “Targeting USP-7 by a Novel Fluorinated 5-Pyrazolyl-Urea Derivative” (International Journal of Molecular Sciences, 2023)

Molecular target: T1, Ubiquitin Specific Protease 7 (USP-7) (Homo sapiens, UniProt Q93009)
T1 construct: gene USP7; recombinant USP-7 (BPS Bioscience kit #79256)
Test: Ub-AMC fluorescence enzyme assay; supported by DARTS immunoblotting and t-LiP-MRM in HTLA-230 lysate
Format: biochemical

T1 sequence (Q93009 whole entry): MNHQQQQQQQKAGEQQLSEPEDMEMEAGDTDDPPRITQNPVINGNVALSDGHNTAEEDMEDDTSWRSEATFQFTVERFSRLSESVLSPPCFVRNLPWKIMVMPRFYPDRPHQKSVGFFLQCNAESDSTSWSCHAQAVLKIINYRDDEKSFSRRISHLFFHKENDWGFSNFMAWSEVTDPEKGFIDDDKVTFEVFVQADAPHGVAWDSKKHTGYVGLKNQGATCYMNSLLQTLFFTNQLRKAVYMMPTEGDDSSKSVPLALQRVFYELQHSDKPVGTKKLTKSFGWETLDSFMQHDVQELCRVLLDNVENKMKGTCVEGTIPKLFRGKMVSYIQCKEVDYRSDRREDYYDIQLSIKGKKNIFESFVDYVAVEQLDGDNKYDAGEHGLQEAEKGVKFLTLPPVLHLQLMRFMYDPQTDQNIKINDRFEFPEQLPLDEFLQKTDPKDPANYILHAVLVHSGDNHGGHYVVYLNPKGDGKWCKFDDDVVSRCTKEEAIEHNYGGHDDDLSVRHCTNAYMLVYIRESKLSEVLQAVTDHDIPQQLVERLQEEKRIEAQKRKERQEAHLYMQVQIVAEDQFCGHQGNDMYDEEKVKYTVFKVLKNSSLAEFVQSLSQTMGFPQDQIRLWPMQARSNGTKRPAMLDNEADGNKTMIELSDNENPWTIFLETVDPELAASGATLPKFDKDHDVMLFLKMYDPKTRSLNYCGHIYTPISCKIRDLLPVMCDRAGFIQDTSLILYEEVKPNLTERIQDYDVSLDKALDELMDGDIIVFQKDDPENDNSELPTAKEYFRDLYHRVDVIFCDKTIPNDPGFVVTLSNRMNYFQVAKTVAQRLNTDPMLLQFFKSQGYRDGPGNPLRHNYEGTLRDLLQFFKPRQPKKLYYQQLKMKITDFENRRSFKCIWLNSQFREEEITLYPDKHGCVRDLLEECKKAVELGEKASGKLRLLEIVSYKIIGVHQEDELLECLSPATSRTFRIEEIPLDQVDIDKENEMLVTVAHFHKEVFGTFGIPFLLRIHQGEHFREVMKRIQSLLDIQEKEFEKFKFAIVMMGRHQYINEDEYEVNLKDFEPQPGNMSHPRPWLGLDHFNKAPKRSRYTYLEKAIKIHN

CCOC(=O)c1cnn(CC(C)O)c1NC(=O)Nc1cccc(F)c1 (racemic) [STIRUR 41]
IC50: 2770 ± 560 nM
